From EP0964681B1, “ANTICONVULSANT DERIVATIVES USEFUL IN TREATING PSORIASIS” (Ortho-McNeil Pharmaceutical, Inc., priority 1996, dated 1998)
Like-named read-outs stand apart in the source and are kept apart here.

Experiments:
[1] = test system: keratinocytes; assay: Keratinocyte cell growth induced by EGF and BPE; assay type: cell-based; conditions: six days of treatment
Description: In these studies, keratinocytes were grown in Medium154, a low calcium medium supplemented with bovine pituitary extract (BPE), bovine insulin, bovine transferrin, human epidermal growth factor (EGF) and hydrocortisone. Keratinocytes were grown to 60-80% confluence and subcultured by using trypsin/EDTA. Four separate experiments were performed to evaluate the dose-dependent effect of topiramate on keratinocyte cell growth as measured by […] after six days of treatment. Topiramate was dissolved in DMSO to make a 100 mM stock solution. In all experiments the final concentration of DMSO in the cell incubation medium was 0.1%. Vehicle controls (0.1% DMSO) were included in each experiment. Cell growth was induced by a combination of the growth factors EGF and BPE.

[2] = test system: seizures; conditions: animal model of kindled epilepsy; cited from earlier work
[3] = test system: seizures; conditions: several rodent models of epilepsy; cited from earlier work
[4] = test system: keratinocytes; assay: Keratinocyte differentiation measured by expression of transglutaminase-1 protein; assay type: cell-based
Description: In these studies, keratinocytes were grown in Medium154, a low calcium medium supplemented with bovine pituitary extract (BPE), bovine insulin, bovine transferrin, human epidermal growth factor (EGF) and hydrocortisone. Keratinocytes were grown to 60-80% confluence and subcultured by using trypsin/EDTA. The effect of topiramate on keratinocyte differentiation was measured by the expression of transglutaminase-1 protein after three days of treatment. Three separate experiments were performed. Differentiation was evaluated in both low calcium and high calcium incubation conditions. An increase in differentiation would be most readily observed under low calcium conditions whereas an inhibition of differentiation could be detected under conditions of high calcium-induced differentiation. […] A follow-up study was conducted which extended the incubation time to 5 days to look for further enhancement.

[5] = test system: psoriatic lesions; assay: Clinical studies of topiramate in epilepsy; patients who coincidentally had psoriasis; assay type: in vivo, human; conditions: reported by at least three epilepsy-trial patients who coincidentally had psoriasis
Description: The activity of the compounds of formula I in treating psoriasis was first evidenced in clinical studies conducted to evaluate the efficacy of topiramate in treating epilepsy. […] Therefore, preclinical in vitro studies were conducted to evaluate the effects of topiramate on keratinocyte function as a putative mechanism of action for its potential beneficial effects in treating psoriasis. One of the hallmarks of psoriatic lesions is hyperproliferative epidermal keratinocytes. In general, agents that affect the proliferation of keratinocytes have an inverse effect on differentiation, i.e. they would inhibit growth and enhance differentiation. Two measures of keratinocyte function were therefore evaluated: cell growth and differentiation.

[6] = test system: simple and complex partial seizures and secondarily generalized seizures; conditions: clinical trials; adjunctive therapy or monotherapy; cited from earlier work

In the case of `CC1(C)O[C@@H]2[C@@H](CO[C@@]3(COS(N)(=O)=O)OC(C)(C)O[C@@H]23)O1` [topiramate, 2,3:4,5-bis-O-(1-methylethylidene)-β-D-fructopyranose sulfamate], the Emax at 10 µM ([1]; Keratinocyte, 144 h, 10 micromolar, growth induced by EGF and BPE, four experiments, not statistically significant (p>0.05), read-out: inhibition of cell growth (maximal response)) is reported as 32 ± 10%, the “dose dependence of the effect on keratinocyte cell growth” value ([1]; four experiments) is reported as “no dose dependence was observed” and the “effect on keratinocyte cell growth” value ([1]; growth induced by EGF and BPE, 0.1% DMSO) is reported as “modest inhibitory effect”. For the same molecule, the block of seizures [2] was “effectively block seizures”, the block of seizures [3] was “effectively block seizures” and the transglutaminase-1 protein ([4]; follow-up study, incubation time extended to 5 days) was “No additional increases”. The transglutaminase-1 protein ([4]; high calcium incubation conditions, three days of treatment) was “modest increase”, the transglutaminase-1 protein ([4]; low calcium incubation conditions, three days of treatment) was “modest increase” and the psoriatic lesions [5] was “marked reduction in the psoriatic lesions”. The “efficacy in treating simple and complex partial seizures and secondarily generalized seizures” value [6] was “effective as adjunctive therapy or as monotherapy”.
